Measurements: US8889068B2, “Method for controlling microbial contamination, mineral suspensions obtained and uses thereof” (Omya International AG, priority 2005, dated 2014)

System: bacteria/yeasts cocktail indicated in table 28
Assay: Disinfection test on simulated wagon washing water with Ca(OH)2
Assay type: cell-based
Protocol: In order to simulate wagon washing water, a buffered kitchen salt solution was used, comprising 3% by weight of a suspension of calcium carbonate, taken from example 1.
The Ca(OH)2 was dissolved in a buffered solution of sterile phosphate at 0.85% by weight (PBS) and was mixed after 24 hours' storage at 30° C. with the bacteria/yeasts cocktail indicated in table 28.
The samples were incubated once more for 24 hours at 30° C. and then removed from the plates.
The germs which had grown were examined under an optical microscope.
A cocktail of bacteria (in PBS), firstly, and a bacteria/yeasts cocktail in (PBS), secondly, were mixed with Ca(OH)2, stored, and then removed from their moulds.
Tables 29 and 30 indicate the OH^− ion concentration (mole/l) and the yeast germ concentration (number/ml) measured in the samples, after 24-hours' incubation, for different initial concentrations of Ca(OH)2.
Samples 9 and 10 of initial Ca(OH)2 concentration equal to 1000 ppm were then removed from their mould at 30° C. on to a bacterial medium called a PCA (Plate Count Agar).
After 48 hours' incubation, the samples are once again removed from their moulds on to the same medium of type PCA.
For a part of sample 9, named 9-2, the OH^− ion concentration was reduced to a value of 5×10^−7 mole/l by the addition of gaseous CO2. […]

`[Ca+2].[OH-].[OH-]` [Ca(OH)2] was tested, and the microbial germs (curative mode, initial Ca(OH)2 1000 ppm, after 24 hours) was “less than 10 number/ml” and the microbial germs concentration (protective mode, initial Ca(OH)2 200 ppm, after 24 hours' incubation at 30° C.) was 1000 number/ml.
